Laboratory results: patent publication US20080199899A1, “Method For Screening Modulators of Mitochondrial Functioning and New Modulators Obtained” (priority 2002, published 2008)
Positions of bridges follow the written chain, without caps; N, C: chain ends. No end group written: not given here.

Experiments:
[1] = tested on: Human umbilical vein endothelial cells (HUVEC); assay: Apoptosis of HUVEC by FACS analysis after 7AAD staining; format: cell-based; details: 5 to 30 μM, 24 to 96 h; FIG. 13
Method: Human umbilical vein endothelial cells were treated with Seq.
HUVEC cells were incubated for 24 to 96 h with 5 or 30 μM of peptide Seq. ID n 5, control peptide, or left untreated. Apoptosis was characterized by FACS analysis after 7AAD staining. A. Dose-response versus control peptide. B. Increasing incubation times with or without 10 μM peptides and staining with 7AAD and detection by FACS analysis.

[2] = tested on: isolated mitochondria; assay: Cytochrome C release from isolated mitochondria by western blot on the supernatant; format: biochemical, mouse; details: 10 μM peptide, 30 minutes; FIG. 9B
Method: B. Cytochrome C release: untreated mitochondria (1), or treated with 5 μM Alamethicin (2) or 10 μM peptide seq. ID No 2 during 30 minutes were assayed for cytochrome C release by western blot on the supernatant.

[3] = tested on: purified mouse liver mitochondria; format: biochemical; details: FIG. 9A
Method: Liver mitochondria were isolated from 3-4 weeks old Balb-c mice (IFFA CREDO, Saint Germain sur l'Arbresle, France). Animals were fasted overnight before being killed by […] dislocation. Liver mitochondria were prepared as described (Jacotot, 2000). All steps were carried out at 4° C. Finally, the organelles were resuspended in ‘swelling buffer’, composed by 200 mM sucrose, 5 mM succinate, 10 mM Tris-MOPS (pH 7.4), 1 mM H3PO4, 2 μM Rotenone, and 10 μM EGTA at pH=7.4. Spectrophotometric and flow cytometric analyses were performed in this buffer. The protein content of isolated mitochondria was determined by the Bradford assay.
Large amplitude swelling was determined with Ultrospec 3300 pro […] (Amersham Pharmacia Bioech, Cambridge, England) by measuring Absorbance at 545 nm (A545) (Bernardi et al., 1992). […] Basal absorbance was recorded for 4 minutes, MPP-inducing reagents were added to samples and large amplitude swelling was monitored by the decrease in absorbance for the following 16 minutes. Data were recorded using the Data capture software (Excel, Uppsala, Sweden). […] Percentages of specific swelling were calculated as follows: (ACa2+−AReagent)×100/(ACa2+−Ainit) were ACa2+, AReagent and Ainit correspond to the absorbance value obtained for CaCl2-treated, reagent-treated and pre-treated mitochondria respectively.

[4] = tested on: HeLa cells; assay: Apoptosis of HeLa cells by fluorescent microscopy or FACS; format: cell-based, human; details: 5 or 10 μM, 24 or 48 h
Method: Characterization of apoptosis induced on cultured human cells by treatment with MMP inducing peptides. The example shown relates to peptide seq. ID no 3 […]. […] The peptide was then tested on cell: the HeLa cells in exponential growth phase were treated with peptide or mock treated, then analyzed by fluorescent microscopy or FACS to ascertain apoptosis.
Caspase-3 activation was performed using a fluorescent inhibitor of caspase-3 (FLICA, FAM-DEVD-FMK) from the CaspaTag™ kit (Intergen). The loss of plasma membrane integrity occurring during apoptosis of HeLa cells was determined by 7-Amino Actinomycin D. (7-AAD) incorporation (SIGMA). […] 7-AAD was added to cells at 37° C. for 15 min. Cells were trypsinized, resuspended in PBS and immediately acquired on the FACSCalibur. FAM-DEVD-FMK related fluorescence was detected using the Fl-1 channel. 7-AAD fluorescence was collected in the Fl-3 channel (>650 nm).
HeLa cells were stained by […] for 15 minutes and observe d using a DM IRB inverted fluorescence microscope (Leica).
HeLa cells were incubated for 24 or 48 h with 5 or 10 μM of peptide Seq. ID no 3 or left untreated. A. Cells were then stained with JC-1 and Hoechst dyes. […] B. Fluorescence microscopy of the cells, after 24 hours incubation with or without 5 μM peptide and staining with JC-1 dye. […]

Row | Substance | apoptosis of HUVEC (in words) [1] | release of Cytochrome C from isolated mitochondria [2] | specific swelling of isolated mitochondria (in words) [3] | apoptosis of HeLa cells (in words) [4]
1 | GG*CRGDMFG*CGGLLFIHFRIGSRHSRIG (GGCRGDMFGCGGLLFIHFRIGSRHSRIG; disulfide 3-10) [SEQ ID N^o 5] | apoptosis induction | – | – | –
2 | RKKRRQRRRCGGLETRTETWMSSEGAWKQIQKVETWALRH [SEQ ID N^o 3] | – | release of Cytochrome C | dose-dependant specific swelling | induction of apoptosis in a dose and time related effect
